Assay results taken from patent US20240368133A1, “Compounds for the Treatment of Pain, in Particular, Neuropathic Pain, and/or Other Diseases or Disorders that are Associated with AT2R and/or AT2R Mediated Signaling” (Confo Therapeutics N.V., priority 2021, published 2024).

Experiments:
[1] = target: human AT1R (Homo sapiens (Human), UniProt P30556); test: Counterscreen radioligand binding assay, displacement of 125I-[Sar1, Ile8]-Angiotensin II, hAT1R WT; conditions: for inhibition at 1 µM / inhibition at 10 µM: 125I-[Sar1, Ile8]-Ang II, semi-quantitative score; for inhibition at 1 µM: compound at 1 μM, read-out: % Displaced radioligand at 1 μM; for inhibition at 10 µM: compound at 10 μM, read-out: % Displaced radioligand at 10 μM; for IC50: HEK-293 cell membranes, read-out: Binding affinity On hAT1R IC50
Outline: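 Compounds displaced 0.05 nM 125I-[Sar1, Ile8]-Ang II from human AT1R in HEK-293 membranes (1 h, 25° C; Tris/MgCl2/EDTA/BSA buffer, pH 7.4). Readout was filtration and scintillation counting, with non-specific binding set by 10 μM [Sar1]-Ang II. Values are % displacement at 1 μM and […], or IC50 from eight-point four-parameter fits.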

[2] = target: human AT2R fused to Cb23 (Homo sapiens, UniProt P50052); test: Radioligand binding assay, displacement of 125I-[Sar1, Ile8]-Angiotensin II, hAT2R Cb23; conditions: displacement of 125I-[Sar1, Ile8]-Angiotensin II, human AT2R fused to Cb23, HEK-293 cell membrane preparations; read-out: Binding affinity on hAT2R_Cb23 IC50
Outline: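 Membranes from HEK-293 cells expressing human AT2R fused to Cb23 were incubated with 0.05 nM 125I-[Sar1, Ile8]-Angiotensin II in 100 μL buffer (50 mM Tris, 5 mM MgCl2, 1 mM EDTA, 0.1% BSA, pH 7.4) for one hour at 25° C. Ligands were tested as eight-point dose-response curves in duplicate, with C21 and Angiotensin II as references.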

Sequence of human AT2R fused to Cb23 (P50052 whole entry, looked up, the tested form may be a part): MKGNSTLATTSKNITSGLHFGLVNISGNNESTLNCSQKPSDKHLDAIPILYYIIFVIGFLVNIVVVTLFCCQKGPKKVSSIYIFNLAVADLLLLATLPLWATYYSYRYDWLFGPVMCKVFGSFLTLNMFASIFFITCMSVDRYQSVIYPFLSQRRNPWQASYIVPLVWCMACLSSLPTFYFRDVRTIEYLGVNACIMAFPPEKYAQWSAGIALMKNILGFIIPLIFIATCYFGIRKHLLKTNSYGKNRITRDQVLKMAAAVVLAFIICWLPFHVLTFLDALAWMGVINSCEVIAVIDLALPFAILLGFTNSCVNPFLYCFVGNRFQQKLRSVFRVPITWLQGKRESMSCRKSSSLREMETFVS
Sequence of human AT1R (P30556 whole entry): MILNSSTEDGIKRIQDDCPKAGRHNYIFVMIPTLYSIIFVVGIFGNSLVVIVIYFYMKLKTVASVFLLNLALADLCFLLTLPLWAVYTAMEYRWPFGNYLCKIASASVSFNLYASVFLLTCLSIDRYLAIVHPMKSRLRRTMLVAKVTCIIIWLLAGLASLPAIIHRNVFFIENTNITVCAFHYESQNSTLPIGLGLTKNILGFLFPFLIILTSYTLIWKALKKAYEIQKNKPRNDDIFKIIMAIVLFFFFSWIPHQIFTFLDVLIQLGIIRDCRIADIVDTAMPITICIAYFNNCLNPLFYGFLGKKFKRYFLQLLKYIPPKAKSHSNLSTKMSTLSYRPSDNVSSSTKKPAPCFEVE

Row | Structure (SMILES) | inhibition at 1 µM [1] [%] | inhibition at 10 µM [1] [%] | IC50 [2] [µM] | IC50 [1] [µM]
1 | c1ccc2sc(CN3CCN(c4cc(C5CC5)ccc4-c4nn[nH]n4)CC3)nc2c1 [Compound A-47, 2-[[4-[5-cycloprop-yl-2-(2H-tetrazol-5-yl)phenyl]piperazin-1-yl]methyl]-1,3-benzothiazole] | < 30 | < 30 | 1.07 | 
2 | CC(C)Cc1ccc(-c2nn[nH]n2)c(N2CCN(c3nc4ccccc4s3)CC2)c1 [Compound A-49, 2-[4-[5-isobutyl-2-(2H-tetrazol-5-yl)-phenyl]piperazin-1-yl]-1,3-benzo-thiazole] | < 30 | 30 to 50 | 2.34 | 20.3
3 | CC(C)Oc1ccc(-c2nn[nH]n2)c(CN2CCN(c3nc4ccccc4s3)CC2)c1 [Compound A-50, 2-[4-[[5-isoprop-oxy-2-(2H-tetrazol-5-yl)phenyl]meth-yl]piperazin-1-yl]-1,3-benzothiazole] | < 30 |  | 10.5 | 28.8
4 | c1ccc2sc(CN3CCN(c4cc(OC5CC5)ccc4-c4nn[nH]n4)CC3)nc2c1 [Compound A-52, 2-[[4-[5-(cyclopropoxy)-2-(2H-tetrazol-5-yl)phenyl]piperazin-1-yl]methyl]-1,3-benzothiazole] | < 30 | < 30 | 4.42 | 
5 | CC(C)COc1ccc(-c2nn[nH]n2)c(N2CCN(Cc3nc4ccccc4s3)CC2)c1 [Compound A-53, 2-[[4-[5-isobutoxy-2-(2H-tetrazol-5-yl)phenyl]piperazin-1-yl]methyl]-1,3-benzothiazole] | < 30 | < 30 | 7.6 | 45.6
6 | c1ccc2sc(CN3CCN(c4cc(OCC5CC5)ccc4-c4nn[nH]n4)CC3)nc2c1 [Compound A-54, 2-[[4-[5-(cyclo-propylmethoxy)-2-(2H-tetrazol-5-yl)-phenyl]piperazin-1-yl]methyl]-1,3-benzothiazole] | < 30 | < 30 | 2.07 | 31
7 | FC(F)COc1ccc(-c2nn[nH]n2)c(N2CCN(Cc3nc4ccccc4s3)CC2)c1 [Compound A-55, 2-[[4-[5-(2,2-difluoroethoxy)-2-(2H-tetrazol-5-yl)-phenyl]piperazin-1-yl]methyl]-1,3-benzothiazole] | < 30 | < 30 | 2.27 | 39.7
8 | c1ccc2sc(CN3CCN(c4cc(OC5CCCC5)ccc4-c4nn[nH]n4)CC3)nc2c1 [Compound A-57, 2-[[4-[5-(cyclo-pentoxy)-2-(2H-tetrazol-5-yl)-phenyl]piperazin-1-yl]methyl]-1,3-benzothiazole] | < 30 | < 30 | 1.9 | 34.5
9 | CCNc1ccc(-c2nn[nH]n2)c(N2CCN(Cc3nc4ccccc4s3)CC2)c1 [Compound A-59, 3-[4-(1,3-benzothi-azol-2-ylmethyl)-piperazin-1-yl]-N-ethyl-4-(2H-tetrazol-5-yl)aniline] | < 30 | < 30 | 4.75 | 
10 | CC(C)Nc1ccc(-c2nn[nH]n2)c(N2CCN(Cc3nc4ccccc4s3)CC2)c1 [Compound A-60, 3-[4-(1,3-benzothiazol-2-ylmethyl)piperazin-1-yl]-N-isopropyl-4-(2H-tetrazol-5-yl)aniline] | < 30 | < 30 | 3.46 | 
11 | c1ccc2sc(CN3CCN(c4cc(NC5CCCC5)ccc4-c4nn[nH]n4)CC3)nc2c1 [Compound A-64, 3-[4-(1,3-benzothi-azol-2-ylmethyl)-piperazin-1-yl]-N-cyclopentyl-4-(2H-tetrazol-5-yl)aniline] | < 30 | < 30 | 1.56 | 39.7
12 | c1ccc2sc(CN3CCN(c4cc(N5CCCCC5)ccc4-c4nn[nH]n4)CC3)nc2c1 [Compound A-65, 2-((4-(5-(piperidin-1-yl)-2-(2H-tetrazol-5-yl)phenyl)piperazin-1-yl)methyl) benzo[d]thiazole] | < 30 | < 30 | 1.85 | 60.8
13 | c1ccc2sc(CN3CCN(c4cc(N5CCOCC5)ccc4-c4nn[nH]n4)CC3)nc2c1 [Compound A-67, 4-[3-[4-(1,3-benzo-thiazol-2-ylmethyl)-piperazin-1-yl]-4-(2H-tetrazol-5-yl)-phenyl]morpholine] | < 30 | < 30 | 7.11 | 
14 | COC1CC(Nc2ccc(-c3nn[nH]n3)c(N3CCN(Cc4nc5ccccc5s4)CC3)c2)C1 (stereo not drawn) [Compound A-68, 3-[4-(1,3-benzo-thiazol-2-ylmethyl)-piperazin-1-yl]-N-(3-methoxycyclo-butyl)-4-(2H-tetrazol-5-yl)aniline] | < 30 | < 30 | 8.5 | 
15 | CC(C)Cc1ccc(-c2nn[nH]n2)c(N2CCN(Cc3nc(=O)c4cnn(C)c4[nH]3)CC2)c1 [Compound A-69, 6-[[4-[5-isobutyl-2-(2H-tetrazol-5-yl)-phenyl]piperazin-1-yl]methyl]-1-methyl-7H-pyr-azolo[3,4-d]pyrimi-din-4-one] | < 30 | < 30 | 10.6 | 
16 | Cc1ccc2nc(CN3CCN(c4cc(CC(C)C)ccc4-c4nn[nH]n4)CC3)cc(=O)n2c1 [Compound A-70, 2-[[4-[5-isobutyl-2-(2H-tetrazol-5-yl)-phenyl]piperazin-1-yl]methyl]-7-methyl-pyrido[1,2-a]pyrimidin-4-one] | < 30 | < 30 | 1.8 | 61.2
17 | Cc1ccn2c(=O)cc(CN3CCN(c4cc(CC(C)C)ccc4-c4nn[nH]n4)CC3)nc2c1 [Compound A-72, 2-[[4-[5-isobutyl-2-(2H-tetrazol-5-yl)phenyl]piperazin-1-yl]methyl]-8-methyl-pyrido[1,2-a]pyrimidin-4-one] | < 30 | < 30 | 8.39 | 
18 | Cc1cccc2nc(CN3CCN(c4cc(CC(C)C)ccc4-c4nn[nH]n4)CC3)cc(=O)n12 [Compound A-73, 2-[[4-[5-isobutyl-2-(2H-tetrazol-5-yl)-phenyl]piperazin-1-yl]methyl]-6-methyl-pyrido[1,2-a]pyrimidin-4-one-] | < 30 | < 30 | 4.3 | 
19 | Cc1csc2nc(CN3CCN(c4cc(CC(C)C)ccc4-c4nn[nH]n4)CC3)cc(=O)n12 [Compound A-75, 7-[[4-[5-isobutyl-2-(2H-tetrazol-5-yl)phenyl]piperazin-1-yl]methyl]-3-methyl-thiazolo[3,2-a]pyrimidin-5-one] | < 30 | < 30 | 5.92 | 
20 | CC(C)Cc1ccc(-c2nn[nH]n2)c(N2CCN(Cc3cc(=O)n4ccccc4n3)CC2)c1 [Compound A-76, 2-[[4-[5-isobutyl-2-(2H-tetrazol-5-yl)-phenyl]piperazin-1-yl]methyl]pyrido-[1,2-a]pyrimidin-4-one] | < 30 | < 30 | 5.57 | 
21 | CC(C)Cc1ccc(-c2nn[nH]n2)c(N2CCN(Cc3cc4ccccc4n(C)c3=O)CC2)c1 [Compound A-77, 3-[[4-[5-isobutyl-2-(2H-tetrazol-5-yl)-phenyl]piperazin-1-yl]methyl]-1-methyl-quinolin-2-one] | < 30 | 30 to 50 | 2.91 | 13.5
